Legend:
Experiment in all cases: combination Emax (second highest fraction inhibited in the dose matrix, 72 h); higher = more inhibition; extreme values may be limits of the assay
[1] = test system: Mo-T (Other Blood Carcinomas)
Procedure, shortened: (§1)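 Cell lines grown in DMEM/F12 or RPMI with 10% FBS were plated in 1536-well plates and held 24 hours at 37°C, 5% CO2 before 72 hours of exposure to two-drug dose matrices, with DMSO typically at 0.2%. CellTiter-Glo 2.0 luminescence gave viability, which was converted to inhibition. Vehicle wells were set to 0 and blank wells to 1. Combination Emax is the second-highest inhibition in the matrix, and Bliss excess is the observed combination effect minus the expected EA + EB − EA·EB, where EA and EB are the single-agent effects.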

[2] = test system: KMRC-1 (Kidney Carcinoma)
Procedure, shortened: as §1

[3] = test system: NCI-H522 (Lung Adenocarcinoma)
Procedure, shortened: as §1

[4] = test system: SNU-387 (Hepatocellular Carcinoma)
Procedure, shortened: as §1

[5] = test system: ME-180 (Cervical Carcinoma)
Procedure, shortened: as §1

[6] = test system: COLO-668 (Small Cell Lung Carcinoma)
Procedure, shortened: as §1

[7] = test system: NCI-H1993 (Lung Adenocarcinoma)
Procedure, shortened: as §1

[8] = test system: SKN (Other Solid Carcinomas)
Procedure, shortened: as §1

[9] = test system: ML-2 (Acute Myeloid Leukemia)
Procedure, shortened: as §1

[10] = test system: KGN (Other Solid Carcinomas)
Procedure, shortened: as §1

[11] = test system: HAL-01 (B-Lymphoblastic Leukemia)
Procedure, shortened: as §1

[12] = test system: EFO-21 (Ovarian Carcinoma)
Procedure, shortened: as §1

[13] = test system: MOLT-4 (T-Lymphoblastic Leukemia)
Procedure, shortened: as §1

[14] = test system: OE33 (Esophageal Adenocarcinoma)
Procedure, shortened: as §1

[15] = test system: MOG-G-UVW (Low Grade Glioma)
Procedure, shortened: as §1

[16] = test system: MDA-MB-453 (Breast Carcinoma)
Procedure, shortened: as §1

[17] = test system: SW872 (Other Solid Carcinomas)
Procedure, shortened: as §1

COLO-679 (Melanoma) = test system: COLO-679 (Melanoma)
Procedure, shortened: as §1

[18] = test system: A4-Fuk (B-Lymphoblastic Leukemia)
Procedure, shortened: as §1

[19] = test system: Ca-Ski (Cervical Carcinoma)
Procedure, shortened: as §1

Structure (SMILES) | combination Emax [1] | combination Emax [2] | combination Emax [3] | combination Emax [4] | combination Emax [5] | combination Emax [6] | combination Emax [7] | combination Emax [8] | combination Emax [9] | combination Emax [10] | combination Emax [11] | combination Emax [12] | combination Emax [13] | combination Emax [14] | combination Emax [15] | combination Emax [16] | combination Emax [17] | combination Emax (COLO-679 (Melanoma)) | combination Emax [18] | combination Emax [19]
Cc1cc2ncnn2cc1Nc1ncc2c(n1)n(C1CCOCC1)c(=O)n2C [AZD7648] + CN(C)CCCOc1ccc(-c2ccc3ncc4c(c3c2)n(C2CCOCC2)c(=O)n4C)cn1 [AZD0156] (first compound max 10 µM, 7x7, partner max 1 µM) | 0.3 | 0.24 | 0.164 | 0.275 | 0.326 | 0.133 | 0.517 | 0.264 | 0.374 | 0.661 | 0.398 | 0.332 | 0.246 | 0.256 | 0.379 | 0.325 | 0.264 | 0.2 | 0.575 | 0.296
Cc1cc2ncnn2cc1Nc1ncc2c(n1)n(C1CCOCC1)c(=O)n2C [AZD7648] + COc1cc([C@@H]2c3cc4c(cc3[C@@H](O[C@@H]3O[C@@H]5CO[C@@H](C)O[C@H]5[C@H](O)[C@H]3O)[C@H]3COC(=O)[C@H]23)OCO4)cc(OC)c1O [Etoposide] (first compound max 10 µM, 7x7, partner max 10 µM) | 0.909 | 0.478 | 0.339 | 0.22 | 0.941 | 0.862 | 0.79 | 0.784 | 0.955 | 0.863 | 1 | 0.438 | 1 | 0.504 | 0.9 | 0.497 | 0.817 | 0.588 | 0.937 | 0.884
Cc1cc2ncnn2cc1Nc1ncc2c(n1)n(C1CCOCC1)c(=O)n2C [AZD7648] + C[C@@H]1COCCN1C2=NC(=NC(=C2)C3(CC3)[S@](=N)(=O)C)C4=C5C=CNC5=NC=C4 [AZD6738] (first compound max 10 µM, 7x7, partner max 10 µM) | 0.569 | 0.518 | 0.193 | 0.388 | 0.442 | 0.579 | 0.665 | 0.47 | 0.968 | 0.873 | 0.984 | 0.488 | 1 | 0.784 | 0.795 | 0.832 | 0.496 | 0.687 | 0.765 | 0.581
Cc1cc2ncnn2cc1Nc1ncc2c(n1)n(C1CCOCC1)c(=O)n2C [AZD7648] + O=C(c1cc(Cc2n[nH]c(=O)c3ccccc23)ccc1F)N1CCN(C(=O)C2CC2)CC1 [Olaparib] (first compound max 10 µM, 7x7, partner max 10 µM) | 0.382 | 0.184 | 0.17 | 0.259 | 0.154 | 0.144 | 0.331 | 0.131 | 0.419 | 0.601 | 0.472 | 0.264 | 0.233 | 0.218 | 0.316 | 0.281 | 0.11 | 0.128 | 0.428 | 0.142
Cc1nc(Nc2ncc(C(=O)Nc3c(C)cccc3Cl)s2)cc(N2CCN(CCO)CC2)n1 [Dasatinib] + CC(=O)Nc1cccc(-n2c(=O)n(C3CC3)c(=O)c3c(Nc4ccc(I)cc4F)n(C)c(=O)c(C)c32)c1 [Trametinib] (first compound max 2 µM, 7x7, partner max 1 µM) | 0.137 | 0.739 | 0.251 | 0.511 | 0.476 | 0.458 | 0.69 | 0.683 | 0.799 | 0.8 | 0.526 | 0.479 | 0.424 | 0.641 | 0.677 | 0.224 | 0.566 | 0.757 | 0.848 | 0.774
COc1cc2ncnc(Nc3ccc(F)c(Cl)c3)c2cc1OCCCN1CCOCC1 [Gefitinib] + CC(C)n1c(=O)n(C)c2cnc3cc(F)c(-c4ccc(OCCCN5CCCCC5)nc4)cc3c21 [AZD1390] (first compound max 10 µM, 7x7, partner max 0.3 µM) | 0.178 | 0.0966 | 0.196 | 0.169 | 0.42 | 0.176 | 0.349 | 0.199 | 0.168 | 0.368 | 0.488 | 0.198 | 0.373 | 0.413 | 0.115 | 0.204 | 0.131 | 0.0902 | 0.307 | 0.292
COc1cc2c(cc1OCCCCCOc1cc3c(cc1OC)C(=O)N1C=C(C)C[C@H]1C=N3)N=C[C@@H]1CC(C)=CN1C2=O [SG3199] + O=C(c1cc(Cc2n[nH]c(=O)c3ccccc23)ccc1F)N1CCN(C(=O)C2CC2)CC1 [Olaparib] (first compound max 0.001 µM, 7x7, partner max 10 µM) | 0.322 | 0.0927 | 0.144 | 0.104 | 0.201 | 0.163 | 0.0845 | 0.0757 | 0.436 | 0.475 | 0.215 | 0.176 | 0.402 | 0.0504 | 0.307 | 0.128 | 0.0788 | 0.108 | 0.157 | 0.0833
N#Cc1cnc(Nc2cc(NC[C@H]3CNCCO3)c(C(F)(F)F)cn2)cn1 [SRA737] + C=CCn1c(=O)c2cnc(Nc3ccc(N4CCN(C)CC4)cc3)nc2n1-c1cccc(C(C)(C)O)n1 [AZD1775] (first compound max 10 µM, partner max 1 µM) | 0.565 | 0.54 | 0.402 | 0.465 | 0.541 | 0.748 | 0.88 | 0.518 | 1 | 0.812 | 1 | 0.431 | 1 | 0.765 | 0.881 | 0.667 | 0.683 | 0.806 | 0.959 | 0.846
N#Cc1cnc(Nc2cc(NC[C@H]3CNCCO3)c(C(F)(F)F)cn2)cn1 [SRA737] + CCc1c2c(nc3ccc(O)cc13)-c1cc3c(c(=O)n1C2)COC(=O)[C@]3(O)CC [SN-38] (first compound max 10 µM, 7x7, partner max 0.3 µM) | 0.821 | 0.525 | 0.635 | 0.548 | 0.95 | 0.953 | 0.835 | 0.749 | 1 | 0.836 | 1 | 0.541 | 1 | 0.8 | 0.925 | 0.719 | 0.947 | 0.723 | 0.974 | 0.992
N#Cc1cnc(Nc2cc(NC[C@H]3CNCCO3)c(C(F)(F)F)cn2)cn1 [SRA737] + Nc1ccn([C@@H]2O[C@H](CO)[C@@H](O)C2(F)F)c(=O)n1 [Gemcitabine] (first compound max 10 µM, 7x7, partner max 0.3 µM) | 0.737 | 0.733 | 0.855 | 0.663 | 0.9 | 0.84 | 0.939 | 0.729 | 1 | 0.947 | 1 | 0.585 | 1 | 0.678 | 0.986 | 0.542 | 0.905 | 0.828 | 0.976 | 0.815
C[C@@H](c1ccc2nccn2c1)n1nnc2ncc(-c3cnn(C)c3)nc21 [Savolitinib] + CC1(C)CCC(CN2CCN(c3ccc(C(=O)NS(=O)(=O)c4ccc(NCC5CCOCC5)c([N+](=O)[O-])c4)c(Oc4cnc5[nH]ccc5c4)c3)CC2)=C(c2ccc(Cl)cc2)C1 [Venetoclax] (first compound max 1 µM, 7x7, partner max 1 µM) | 0.114 | 0.141 | 0.111 | 0.244 | 0.114 | 0.295 | 0.754 | 0.169 | 0.46 | 0.233 | 0.703 | 0.212 | 0.476 | 0.301 | 0.392 | 0.15 | 0.136 | 0.109 | 0.199 | 0.174
C[C@@H](c1ccc2nccn2c1)n1nnc2ncc(-c3cnn(C)c3)nc21 [Savolitinib] + Cc1c2c(nn1C)CSCc1cc(n(C)n1)CSc1cc(c3ccccc3c1)OCCCc1c(C(=O)O)n(C)c3c-2c(Cl)ccc13 [AZD5991] (first compound max 1 µM, 7x7, partner max 1 µM) | 0.129 | 0.209 | 0.281 | 0.342 | 0.114 | 0.257 | 0.789 | 0.219 | 1 | 0.303 | 0.291 | 0.163 | 0.491 | 0.328 | 0.343 | 0.261 | 0.201 | 0.163 | 1 | 0.212
